Test results as given in patent publication US8613948B2, “Treatment of faecal incontinence and other conditions with 1R, 2S-methoxamine” (Norgine BV, priority 2001, dated 2013).
Values joined by “and” are separate entries in the source; they are usually repeats but may differ in a detail not shown here. Equal entries are not always repeated. Where two headings read alike, the source gives them in different places.

Experiments:
[1] = test system: patients with incontinence; conditions: cited from earlier work
[2] = test system: pig internal anal sphincter muscle; assay: In vitro contraction of internal anal sphincter muscle strips in superfusion organ bath; format: cell-based; conditions: for EC50: Sus scrofa; for contraction of smooth muscle strips from the IAS: dose range 10^−2M to 10^−8M
Experimental: Tissue was obtained from female Large White pigs from a local abattoir. Pieces of internal anal sphincter muscle were cut and the tissue was transferred immediately to Krebs solution at 4° C. (120 mM NaCl, 5.9 mM KCl, 15.4 mM Na2HCO3, 1.2 mM NaH2PO4, 2.5 mM CaCl2, 1.2 mM MgCl2, 11.5 mM glucose, equilibrated with 97% oxygen and 3% carbon dioxide to maintain the pH at 7.4±0.05). The epithelium of the anal canal was removed along with the submucosa. Strips of the internal anal sphincter (IAS) were cut, each measuring approximately 1×1×7 mm, weighing 2 mg to 8 mg and containing parallel muscle bundles. Fine 5-0 silk ligatures were tied to each end and the strips mounted for isometric tension recording in superfusion organ baths (capacity 0.2 ml)^19 as shown in FIG. 1. The muscle strip 1 is held by a thread 2 to secure it in position within the Perspex jacket 3. The strips were perfused continuously with Krebs solution (37° C.) at a rate of 1 ml/min introduced via an inflow 4 and exiting via an overflow 5. This apparatus allows six strips to be studied simultaneously. The strips were initially loaded with 1 g tension and allowed to equilibrate for at least 90 minutes. Tension was measured by Pioden dynamometer UF1 transducer (Pioden Controls, Canterbury, UK) involving a tension transducer 6 and ring electrodes 7 and 7a, and recorded both on a six channel Tekman 900 pen recorder (Tekman Electronics, Learnington Spa, UK) and using Chart v3.6 and MacLab Data Acquisition System (AD Instruments, Australia).
Phenylephrine (Sigma Chemical Co., Poole, UK), methoxamine racemate and the four methoxamine isomers were dissolved in Krebs solution and tested for their effect on IAS tone. Methoxamine racemate, that is to say, an equimolar mixture of the four isomers, was produced by Prosyth Limited, Acton, Sudbury, Suffolk. The four isomers (called peaks 1 to 4), were separated as described in Example 3. Peak 2 is 1R,2S-methoxamine. The 1R,2S isomer was also synthesised as described in Example 4. It has been confirmed by crystallography that peak 2 is 1R,2S-methoxamine.
IAS strips developed intrinsic tone during the equilibrium period. After equilibration increasing concentrations of each of the test compounds were added for 20 second periods, with intervening washout periods of at least ten minutes, until the tone had returned to baseline.
Results are expressed as mean (standard error of the mean) and the number of surgical specimens from which these strips were derived. A maximum of six strips were used from each pig for each test compound.
Test compound-induced increases in tone were calculated by taking the peak tone after application of the test compound and […]. This figure was then expressed as a percentage of maximal increase in tone seen across the dose range used (10^−2M to 10^−8M). All analysis was performed using Chart v3.6 software.
EC50 values were calculated by plotting concentration-response curves for each muscle strip. The dose causing 50% of maximal contraction was calculated by linear regression. EC50 values for different drugs were compared using a two-tailed t-test, assuming unequal variance and with p<0.05 considered significant.

[3] = test system: human subjects; conditions: cited from earlier work
[4] = test system: anoderm; assay: Macroscopical inspection of the anoderm; format: in vivo, Göttingen-minipigs; conditions: 0.3%, 1%, or 3%
Experimental: A macroscopical inspection of the anoderm was carried out during the experiments. Any obvious irritation and/or erythema caused by the fairly low pH value of the test substance formulation was reported.

[5] = test system: anaesthetised minipigs; assay: Mean anal resting pressure (MARP) in anaesthetised minipigs after topical administration to the anoderm; format: in vivo, Göttingen-minipigs; conditions: for effect on internal anal sphincter pressure and blood pressure: pigs in vivo
Experimental: • a) Placebo in 4% w/w gel • b) 0.3% by weight 1R,2S-methoxamine in 4% w/w gel • c) 1% by weight 1R,2S-methoxamine in 4% w/w gel • d) 3% by weight 1R,2S-methoxamine in 4% w/w gel • The 4% w/w gel comprises 4 g of hydroxypropylmethyl cellulose in 96 ml of 0.5M acetate buffer. 1% by weight 1R,2S-methoxamine in 4% w/w gel comprises 1 g of 1R,2S-methoxamine in 99 g of the 4% gel. Animals/Animal Maintenance
Göttingen-minipigs obtained from Ellegaard Göttingen Minipigs ApS, Soro Landevej 302, DK-4261 Dalmose, Denmark were used for the investigation. […] Four male animals were used. Animal no. 2 was replaced by animal no. 4, see below.
The minipigs were anaesthetised with a chloralose-urethane mixture (ratio 1+5). Additional anaesthesia was given when needed. To ensure a stable general condition of the minipig, blood gases and pH-value were measured in blood obtained from the right or left a. femoralis using a blood gas analyser ABL 70 (Radiometer, Copenhagen, Denmark) before start of experiment. Ringer solution (5 ml/kg b.w./h) was given continuously to compensate for fluid losses. The body temperature of the animals was maintained at 38° C. throughout the experiment of external heating.
(§1) The test substances were administered topically to the anoderm using a volume of 0.5 ml/animal. The interval between each observation period was 20 minutes. The administration was performed employing a 1 ml syringe inserted approximately 1 cm into the anal canal. The test substances were administered slowly while the syringe was rotated. After the preparation and a period of at least 15 minutes for stabilisation of the circulatory functions, the animals were treated with the placebo or the selected dose levels of the test substance by administration to the anoderm.
The anal resting pressure was measured by introduction of a manometric probe (Unisensor Microtipcatheter 8104-00-9409-D; Medical Measurement Systems b.v., Collosseum 25, NL-7521P.V. Enschede, The Netherlands) into the rectum three times. The anal resting pressure taken as a mean of these three measurements (MARP) was recorded with a Rikadenki Multipenrecorder.

[6] = test system: anaesthetised minipigs; assay: Peripheral arterial blood pressure in anaesthetised minipigs after topical administration to the anoderm; format: in vivo, Göttingen-minipigs; conditions: 0.5 ml of 0.3%, 1%, 3% gels
Experimental: as §1
An intraarterial indwelling catheter (size 0.8×1.4 mm, B. Braun Melsungen AG, D-34212 Melsungen, Germany) was connected to a pressure transducer (DTX, Pfrimmer-Viggo, Erlangen, Germany) recording the systolic and diastolic arterial blood pressure in the right or left a. femoralis. The signal was boosed by a Hellige Servomed SMV 178 T amplifier (Hellige GmbH, D-79100 Freiburg, Germany). The blood pressure was recorded and monitored with a Hellige Cardiognost EK 512 P (paper speed: 2.5 mm/sec). Systolic and diastolic blood pressure [mmHg] were determined and the mean pressure was calculated according to the following formula: Mean blood pressure [mmHg]=(systolic pressure+(2×diastolic pressure))/3 Heart Rate and Electrocardiography […]

[7] = test system: anaesthetised minipigs; assay: Reactivity of the circulatory functions to arterenol or isoproterenol; format: in vivo, Göttingen-minipigs; conditions: any of the gels
Experimental: Before the first administration and at further suitable times after the administration, isoproterenol was administered intravenously for control purposes. Arterenol (norephinephrine hydrochloride, also known as L-noradrenaline) was administered for control purposes at the end of the study only after completing the collection of the blood samples for toxicokinetics.

[8] = Methoxamine plasma levels in minipigs after topical administration to the anoderm; format: in vivo, Göttingen-minipigs; conditions: for mean peak plasma levels: 0.5 ml topical, two pigs
Experimental: as §1
Blood samples (5 ml/time-point) were taken immediately before and 10, 20, 40, 60, 90, and 120 minutes after start of administration, and were collected into lithium-heparin containers. The blood samples were immediately cooled at +2° C. to +8° C. by the use of an IsoTherm-Rack system (Eppendorf-Netheler-Hinz GmbH, D-22331 Hamburg, Germany) and the whole blood was processed for […]. Plasma was prepared by centrifugation (5 min, 4000 rpm, at +5° C.) and split into aliquots of approx. 1 ml each. Both plasma aliquots were immediately frozen at −80° C. at least and stored at this temperature until dispatch of one aliquot on dry ice for analysis.
The samples were analysed for the methoxamine plasma levels. The results are presented in Appendix 3.

[9] = test system: anaesthetised minipigs; parameters: species or system Göttingen-minipigs; conditions: in vivo
Experimental: as §1
ECG recordings were made using the standard limb leads I, II and III as well as augmented limb leads aVR, aVL and aVF. A standardisation of 10 mm/1 mV was used and a paper speed of 50 mm/sec. The recordings were carried out using a HELLIGE Marquette mac 5000 12SL. The recordings were examined visually for any arrhythmias and abnormalities of the electrical complexes. In addition, the following parameters were evaluated for limb lead II: Heart rate [beats/min]; P segment, [msec]; P-Q interval, [msec]; QRS complex [msec]; Q-T interval, [msec]. The QTc values [msec] were calculated according to the van de Water-formula: QTc=QT−0.087 (R-R distance−1000)
For each measurement period the heart rate, ECG and the blood pressure in the a. femoralis were measured continuously and recorded immediately before and 5, 10, 15, 20, 40 and 60 minutes after start of administration for periods of approx. 30 sec, and then in intervals of 20 minutes until any effect had subsided.

[10] = IAS smooth muscle strips, n=24(4), read-out: EC50 values
[11] = pig IAS strips, Table 1, read-out: EC50 value μM (±SE)

CNC[C@H](O)c1cccc(O)c1 [Phenylephrine]
subjective improvement in continence ([1]; 10% gel, patients with faecal leakage after ileoanal pouch construction): significantly greater subjective improvement in continence compared to placebo | incontinence scores, resting anal canal pressure or anodermal blood flow ([1]; 10% gel, randomised controlled trial, 36 patients with incontinence): no significant overall improvements | local side effect ([1]; topical preparations of the order of 30-40% by weight): perianal burning has been reported | EC50 [2, 10]: 75 µM | EC50 [2, 11]: 74.7 µM | contraction of smooth muscle strips from the IAS [2]: caused a dose-dependent contraction | duration of rise in resting anal pressure (median) ([3]; 10% gel, normal human subjects): 7 h | rise in resting anal pressure ([3]; 10% to 20% by weight gels, patients with low resting pressures and incontinence): no significant rise in resting anal pressure | rise in resting anal pressure ([3]; 30% and 40% gels, patients with low resting pressures and incontinence): increases did achieve statistical significance | rise in resting anal pressure ([3]; gel comprising 10% by weight, applied to the anus of normal human subjects): 33%

COc1ccc(OC)c([C@@H](O)C(C)N)c1 (single isomer, unassigned) [1R,2S-methoxamine]
macroscopic inspection: pathological changes [4]: No pathological changes were observed | increase in MARP compared to the start value ([5]; 0.5 ml of 0.3% gel): 73% | period of MARP increase ([5]; 0.5 ml of 0.3% gel): 110 min | start of MARP increase after administration ([5]; 0.5 ml of 0.3% gel): 5 min | MARP ([5]; 0.5 ml of 0.3% gel, topical to anoderm, average): 50 mmHg | increase in MARP ([5]; 0.5 ml of 1% gel): 227% | time after application to MARP increase ([5]; 0.5 ml of 1% gel): ≤ 20 min | MARP ([5]; 0.5 ml of 1% gel, average): 64 mmHg | MARP ([5]; 0.5 ml of 3% gel): 70 mmHg | MARP ([5]; 0.5 ml of 3% gel, listed as IR,2S-methoxamine): approx. 70 mmHg | effect on internal anal sphincter pressure and blood pressure ([5]; 0.5 ml of gel containing 1% or 0.3% by weight (5 mg and 1.5 mg), topical): increase internal anal sphincter pressure without any effect on blood pressure | effect on internal anal sphincter pressure and blood pressure ([5]; gels containing 1% by weight and even as little as 0.1% by weight): increase internal anal sphincter pressure without any effect on blood pressure | EC50 ([2]; chemically synthesised 1R,2S isomer, pig IAS strips, read-out: EC50): 10.5 µM | EC50 [2, 11]: 17.6 µM | contraction of smooth muscle strips from the IAS [2]: caused dose dependent contraction | potency at inducing contraction of internal anal sphincter muscle in vitro relative to phenylephrine ([2]; in vitro): at least four times more potent | potency relative to methoxamine racemate ([2]; racemate = equimolar mixture of all four isomers): at least four times the potency | systolic, diastolic or mean blood pressure [6]: not influenced | expected reactions to arterenol or isoproterenol [7]: not influenced | maximum plasma levels ([8]; 0.3% formulation): 6 ng methoxamine/ml plasma | time of peak plasma levels ([8]; 0.3% gel): 40 min | mean peak plasma levels ([8]; 0.3% gel): 4.90 ng/mL and 6.97 ng/mL | time of maximum plasma levels following application ([8]; 0.3%, 1% and 3% formulations): approximately 40 minutes | maximum plasma levels ([8]; 1% formulation): 10 ng methoxamine/ml plasma | mean peak plasma levels ([8]; 1.0% gel): 9.88 ng/mL and 11.0 ng/mL | maximum plasma levels ([8]; 3% formulation): 56 ng methoxamine/ml plasma | mean peak plasma levels ([8]; 3.0% gel): 50.4 ng/mL and 61.3 ng/mL | heart rate ([9]; Göttingen, minipig, 2 h): approx. 100 beats/min | increase in the heart rate ([9]; Göttingen, minipig, 2 h): 29% | influence on P-segment, P-Q interval, Q-T interval, QTc value and QRS complex [9]: no substance-related influence | prolongation of the QT-interval [9]: no evidence was noted for a prolongation of the QT-interval | ventricular premature complexes (visual assessment of ECG) [9]: did not reveal any ventricular premature complexes

COc1ccc(OC)c(C(O)C(C)N)c1 (racemic) [methoxamine racemate, 2-amino-1-(2,5-dimethoxyphenyl)-1-propanol]
EC50 [2, 10]: 0.058 µM | EC50 [2, 11]: 58.3 µM | contraction of smooth muscle strips from the IAS [2]: caused a dose-dependent contraction
